Here are results for one compound from patent US6436423B1, “Product and method for improving avian health” (Arkion Life Sciences, priority 1998, dated 2002).

Assay [1] concerns Ross x Hubbard HyY broiler chicks. As to the kind of experiment: Example 1: efficacy of AQ applied to the litter used in broiler chicken houses (42 day performance). Type of assay: in vivo. Conditions: AQ applied to the litter at the 1.0× dose; full dose and half dose of coccidiostat in the feed. The text has this:
A total of 3456 one-day-old straight run Ross x Hubbard HyY broiler chicks was used in the experiment. There were 6 treatments with 8 replicates per treatment and 72 birds per replicate. The individual pen was the experimental unit. The experimental treatments used follows:
1. Negative Control =No coccidiostat or growth promoting antibiotics and no litter treatment
2. Positive Control=BioCox® (full dose)+BMD®+3-Nitro and no litter treatment
3. BioCox® (full dose)+BMD®+3-Nitro+0.5× litter treatment*
4. BioCox® (full dose)+BMD®+3-Nitro+1.0× AQ litter treatment**
5. BioCox® (half dose)+BMD®+3-Nitro+0.5× AQ litter treatment
6. BioCox® (half dose)+BMD®+3-Nitro+1.0× AQ litter treatment
*0.5× Solution of AQ−⅛ Gallon/44,000sqft
**1.0× Solution of AQ−¼ Gallon/44,000sqfi

The test system is the same in assay [2]. The assay can be described thus: Example 2: efficacy of AQ applied to the litter used in broiler chicken houses, dose titration (42 day performance). Format: in vivo. From the text:
The term “weight adjusted feed efficiency” is based upon a feed efficiency corrected to a standard weight called the “weight adjusted feed efficiency” (WAFE). Feed efficiency can be adjusted to a standard weight of 2.00 kg. For every 31.78 grams difference in weight, the feed efficiency can be adjusted by 0.01. For example:
(§1) A total of 6912 one-day-old straight run Ross x Hubbard HyY broiler chicks was used in the experiment. There were 12 treatments with 8 replicates per treatment and 72 birds per replicate. The individual pen was the experimental unit. The experimental treatments used were as follows:
1. Negative Control—No coccidiostat or growth promoting antibiotics—No litter treatment
4. No litter treatment—BioCox (half dose)
3. 4× AQ litter treatment—No feed additives
4. 4× AQ litter treatment—BioCox (half dose)
5. 10.0× AQ litter treatment—No feed additives
6. 4.0× AQ litter treatment+BioCox (low dose)+BMD+3-Nitro
7. 4.0× AQ litter treatment BioCox (low dose)+BMD+3-Nitro
8. 10× AQ litter treatment−BioCox (half dose)
9. Positive Control BioCox (full dose)+BMD+3-Nitro
10. 4× AQ litter treatment−BioCox (full dose)+BMD+3-Nitro
11. 10× AQ litter treatment−BioCox (half dose)+BMD+3-Nitro
12. 10× AQ litter treatment−BioCox (full dose)+BMD+3-Nitro.
(§2) 4× Solution of AQ−1 Gallon/44,000sqft×4.2 ml per 48sqft (one pen)

The next assay has as its system coccidia. As to the kind of experiment: Example 2: intestinal lesion scores (intestinal coccidia score). Type of assay: in vivo, broiler chicken. Conditions: 14 day data; 10× or 4× AQ dose on litter combined with typically used poultry diets. The procedure:
as §1, §2
This means that the lesion score difference was greater than 1 unit (scoring range of 0-4).

[3] abbreviates: 10× AQ dose on litter combined with typically used poultry diets.
The mark [4] stands for this setting: 10× AQ dose on litter, diet contained no coccidiostat or antibiotic feed additive.

`O=C1c2ccccc2C(=O)c2ccccc21` [AQ, anthraquinone]: the “effect on feed efficiency (conclusion)” value in assay [1] is on record as “improvement in feed efficiency”. In assay [2] (setting [3]), the “feed efficiency compared with the positive control (conclusion)” value is listed as “significantly improved (p<0.05) over the positive control” and the “weight gain compared with the positive control (conclusion)” value is recorded as “significantly improved (p<0.05) over the positive control”. For the same compound, in assay [2] (setting [4]), the “feed efficiency compared with the negative control (conclusion)” value was “significant difference between this treatment and the negative control”; the “feed efficiency compared with the positive control (conclusion)” value was “no difference from the positive control”. The “effect of addition of AQ to the litter on weight gain (conclusion)” value in assay [2] (dose titration study) is given as “tends to improve weight gain numerically”. In the assay with coccidia, the “intestinal coccidia score compared with the positive and negative control (conclusion)” value was “improved significantly (p<0.05) over the positive and negative control”.
